Measured values reported in PubChem BioAssay AID1963835 (Molecular Pharmacology Branch, DTP, NCI, 2024).

System: 699152-130-R-J1-PDC complex spheroid viability
Experiment: Anticancer human tumor 699152-130-R-J1-PDC patient-derived pancreatic carcinoma cell line growth inhibition [POLQ]
Conditions: for IC50: curve of first compound; for viability, T/C: stronger effect = lower value
Procedure: Multicellular complex tumor spheroid response to Polymerase (POL) inhibitors (novobiocin, ART-558, RP6685) in combination with a variety of drugs and investigational agents in selected tumor cell lines
The POL inhibitors (novobiocin, ART-558, and RP6685) were evaluated both individually and in combination with standard of care and investigational anticancer small molecules within a complex spheroid model of solid tumors. . Complex spheroids include a stromal component modeled by human endothelial cells (HUVEC) and fibroblasts modeled by human mesenchymal stem cells (MSCs). The concentration ranges selected for each drug and investigational agent were based upon clinically achievable concentrations if the clinical Cmax of the agent was known.
Compounds. The drugs and investigational agents: novobiocin (NSC847541), ART-558 (NSC835418), RP-6685 (NSC848927), peposertib (NSC802822), ceralasertib (NSC780249), elimusertib (NSC800525), camonsertib (NSC841442), AZD-1390 (NSC803789), olaparib (NSC753686), talazoparib (NSC767125), rucaparib (NSC756644), sotorasib (NSC818433), MRTX-1133 (NSC836407), SN-38 (NSC673596), topotecan (NSC609699), epotoside (NSC141540), doxorubicin (NSC123127), gemcitabine (NSC613327), 5-fluorouracil (NSC19893), paclitaxel (NSC125973), vemurafenib (NSC761431), MSA-2 (NSC828583), SN-011 (NSC837082), adavosertib (NSC754352), prexasertib (NSC758257), carboplatin (NSC241240) and oxaliplatin (NSC266046), were obtained from the National Cancer Institute (NCI) Developmental Therapeutics Program Chemical Repository (21). The FDA-approved anticancer drug set is available from the Developmental Therapeutics Program at https://dtp.cancer.gov/organization/dscb/obtaining/. […] The stock solutions were prepared in dimethyl sulfoxide (DMSO, Sigma-Aldrich, St. Louis, MO, cat. D2650), except for the platinum compounds which were prepared in saline (Quality Biological, Gaithersburg, MD, cat. 114-055-101), at 800-fold the tested concentration and stored at -70 degrees C prior to their use. All drugs and investigational agents were tested over a range starting from a high concentration at or near the clinical Cmax and decreasing in half-log increments. If the clinical Cmax for an agent had not been determined, the highest concentration tested was 10 microM, except for SN-38, which was tested at a high concentration of 1 microM.
Cell Culture. All cells were maintained in an incubator at 37 degrees C and 5% CO2 with 95% humidity. The PDC lines were cultured according to standard operating procedures established by the NCI PDMR (https://pdmr.cancer.gov). Table 3 of the manuscript, lists the cell lines along with the number of the three cell types plated to form the mct-spheroids and media for tumor cell growth. After thawing, all PDC lines, except 997537-175-T-J1-PDC and 415267-285-R-J2-PDC, were cultured in Matrigel-coated flasks prepared with a working solution of 1X Ham's F-12 nutrient mix, without supplementation (Thermo Fisher Scientific, cat. 11765054), 100 U/mL penicillin-streptomycin (Thermo Fisher Scientific, cat. 15140122), and 2.5% Matrigel (Corning Inc., Corning, NY, cat. 354248) for the first three passages. The two PDC lines 997537-175-T-J1-PDC and 415267-285-R-J2-PDC were cultured on uncoated flasks. The 857933-349-R-J2-PDC line was cultured in 6C/Colon 1B media containing advanced DMEM/F-12 (Thermo Fisher Scientific, cat. 12634028), 10 mM HEPES (Thermo Fisher Scientific, cat. 15630080), 1X GlutaMAX supplement (Thermo Fisher Scientific, cat. 35050061), 0.1 mg/mL primocin (InvivoGen, San Diego, CA, cat. ant-pm-2), 10% defined fetal bovine serum, heat inactivated (HyClone Laboratories Inc., Logan, UT, cat. SH30070.03HI), 50% L-WRN conditioned media (ATCC, cat. CRL-3276), 1.25 mM N-Acetyl-L-cysteine (Sigma-Aldrich, cat. A9165), 10 mM nicotinamide (Sigma-Aldrich, cat. N0636), 1X B-27 supplement (Thermo Fisher Scientific, cat. 17504044), 1X N-2 supplement (Thermo Fisher Scientific, cat. […]
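Further: spheroids exposed to agents for 7 days before viability reading.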
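Wherever viability, T/C is given: percent of DMSO vehicle control viability so 100% = vehicle and 0% = no viable signal.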

CNCc1ccc(-c2[nH]c3cc(F)cc4c3c2CCNC4=O)cc1 + Cc1cccc(N(C)C(=O)C2C(O)CCN2c2nc(C)cc(C(F)(F)F)c2C#N)c1
IC50 (second compound 0.0316 µM): > 10 µM | IC50 (second compound 0.1 µM): > 10 µM | IC50 (second compound 0.316 µM): > 10 µM | IC50 (second compound 1 µM): > 10 µM | IC50 (second compound 3.16 µM): > 10 µM | IC50 (second compound 10 µM): > 10 µM | viability, T/C (second compound 0.0316 µM, first compound 0.0316 µM): 95.5% | viability, T/C (second compound 0.0316 µM, first compound 0.1 µM): 88.8% | viability, T/C (second compound 0.0316 µM, first compound 0.316 µM): 101% | viability, T/C (second compound 0.0316 µM, first compound 1 µM): 95.3% | viability, T/C (second compound 0.0316 µM, first compound 3.16 µM): 113% | viability, T/C (second compound 0.0316 µM, first compound 10 µM): 126% | viability, T/C (second compound 0.1 µM, first compound 0.0316 µM): 88.8% | viability, T/C (second compound 0.1 µM, first compound 0.1 µM): 106% | viability, T/C (second compound 0.1 µM, first compound 0.316 µM): 92.2% | viability, T/C (second compound 0.1 µM, first compound 1 µM): 103% | viability, T/C (second compound 0.1 µM, first compound 3.16 µM): 105% | viability, T/C (second compound 0.1 µM, first compound 10 µM): 119% | viability, T/C (second compound 0.316 µM, first compound 0.0316 µM): 95.5% | viability, T/C (second compound 0.316 µM, first compound 0.1 µM): 94.2% | viability, T/C (second compound 0.316 µM, first compound 0.316 µM): 96.6% | viability, T/C (second compound 0.316 µM, first compound 1 µM): 111% | viability, T/C (second compound 0.316 µM, first compound 3.16 µM): 123% | viability, T/C (second compound 0.316 µM, first compound 10 µM): 114% | viability, T/C (second compound 1 µM, first compound 0.0316 µM): 92.7% | viability, T/C (second compound 1 µM, first compound 0.1 µM): 86.9% | viability, T/C (second compound 1 µM, first compound 0.316 µM): 88.9% | viability, T/C (second compound 1 µM, first compound 1 µM): 94.8% | viability, T/C (second compound 1 µM, first compound 3.16 µM): 99.4% | viability, T/C (second compound 1 µM, first compound 10 µM): 127% | viability, T/C (second compound 3.16 µM, first compound 0.0316 µM): 101% | viability, T/C (second compound 3.16 µM, first compound 0.1 µM): 87.7% | viability, T/C (second compound 3.16 µM, first compound 0.316 µM): 96.6% | viability, T/C (second compound 3.16 µM, first compound 1 µM): 98.1% | viability, T/C (second compound 3.16 µM, first compound 3.16 µM): 115% | viability, T/C (second compound 3.16 µM, first compound 10 µM): 122% | viability, T/C (second compound 10 µM, first compound 0.0316 µM): 99.2% | viability, T/C (second compound 10 µM, first compound 0.1 µM): 101% | viability, T/C (second compound 10 µM, first compound 0.316 µM): 105% | viability, T/C (second compound 10 µM, first compound 1 µM): 97.9% | viability, T/C (second compound 10 µM, first compound 3.16 µM): 109% | viability, T/C (second compound 10 µM, first compound 10 µM): 116%
